Structures can show the parent of a compound that is named as a salt.
Columns and labels:
Assay type in all cases: cell-based
Details in all cases: lowest concentration inhibiting 95% of bacterial growth; in the presence of β lactamase inhibitor Relebactam 4 μg/mL; 35±2° C. for 22 hours; tested range 100 μM to 0.098 μM
[1] = system: Acinetobacter baumannii expressing TEM-1, AmpC, and Oxa-24/40 (CL6188); experiment: Antibiotic activity: growth inhibitory concentration (OD600), Acinetobacter baumannii CL6188
Method: (§1) Antibiotic Activity: Determination of Growth Inhibitory Concentration
(§2) The concentrations of compounds required to inhibit the growth of various strains of bacteria were determined in an assay that assessed bacterial growth by measuring optical density at 600 nm (OD600). The bacterial strains tested included the clinical strains Escherichia coli expressing NDM-1 (CLB30016), Klebsiella pneumoniae expressing KPC-1 (CL6569), Acinetobacter baumannii expressing TEM-1, AmpC, and Oxa-24/40 (CL6188) and Pseudomonas aeruginosa expressing AmpC (CL5701). All compounds were tested in the presence of a β lactamase inhibitor (BLi, Relebactam) in 384-well microplates. The clinical strains were stored as frozen single use stocks, thawed and diluted into 1.1× cation-adjusted Mueller-Hinton II broth to achieve approximately 2×10^5 CFU/mL. Test compounds were dissolved in DMSO and diluted 1:50 in the assay, resulting in a final concentration range of 100 μM to 0.098 μM. […] At the end of the incubation, absorbance at 600 nm was determined using a spectrophotometer. Inhibition was quantitated by identifying the lowest concentration of test compound that was required to inhibit 95% of the growth of the bacteria. The results for Examples 1-126 are reported in Table I, expressed as the concentration of compound that inhibited 95% of bacterial growth (Minimum Inhibitory Threshold Concentration; MITC95).

[2] = system: Escherichia coli expressing NDM-1 (CLB30016); experiment: Antibiotic activity: growth inhibitory concentration (OD600), Escherichia coli CLB30016
Method: as §1, §2

[3] = system: Pseudomonas aeruginosa expressing AmpC (CL5701); experiment: Antibiotic activity: growth inhibitory concentration (OD600), Pseudomonas aeruginosa CL5701
In short: (§3)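 Clinical strains at ~2×10^5 CFU/mL in cation-adjusted Mueller-Hinton II broth, with relebactam at 4 μg/mL final; compounds 100 μM to 0.098 μM final. After 22 hours at 35±2° C, OD600 read; MITC95 is lowest concentration giving 95% growth inhibition.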

[4] = system: Klebsiella pneumoniae expressing KPC-1 (CL6569); experiment: Antibiotic activity: growth inhibitory concentration (OD600), Klebsiella pneumoniae CL6569
In short: as §3

| Compound | AB_CL6188 MITC95 [1] [µM] | EC_CLB30016 MITC95 [2] [µM] | PA_CL5701 MITC95 [3] [µM] | KP_CL6569 MITC95 [4] [µM] |
| --- | --- | --- | --- | --- |
| (S)-3-((Z)-2-(((S)-2-(4-(2-(3-amino-2-fluoro-2λ^3-propyl)-1-(azetidin-3-ylmethyl)-1H-pyrazol-2-ium-4-yl)phenoxy)-1-carboxyethoxy)imino)-2-(2-aminothiazol-4-yl)acetamido)-2,2-dimethyl-4-oxoazetidin-1-yl sulfate [Example 121] | 1.563 | 6.25 | 1.563 | 0.1953 |
| C[n+]1cc(-c2ccc(OC[C@H](O/N=C(\C(=O)N[C@@H]3C(=O)N(OS(=O)(=O)[O-])C3(C)C)c3csc(N)n3)C(=O)O)cc2)c(N)n1CCCN [Example 50, (S)-3-((Z)-2-(((S)-2-(4-(5-Amino-1-(3-aminopropyl)-2-methyl-1H-pyrazol-2-ium-4-yl)phenoxy)-1-carboxyethoxy)imino)-2-(2-aminothiazol-4-yl)acetamido)-2,2-dimethyl-4-oxoazetidin-1-yl sulfate] | 3.125 | 6.25 | 6.25 | 0.3906 |
| CC1(C)[C@H](NC(=O)/C(=N\O[C@@H](COc2ccc(-n3cc(CCCN)[n+](CC4(F)CNC4)c3)nc2)C(=O)O)c2csc(N)n2)C(=O)N1OS(=O)(=O)[O-] [Example 124, (S)-3-((Z)-2-(((S)-2-((6-(4-(3-aminopropyl)-3-((3-fluoroazetidin-3-yl)methyl)-1H-imidazol-3-ium-1-yl)pyridin-3-yl)oxy)-1-carboxyethoxy)imino)-2-(2-aminothiazol-4-yl)acetamido)-2,2-dimethyl-4-oxoazetidin-1-yl sulfate] |  |  | 12.5 | 0.7813 |
| COC(=O)[C@H](COc1ccc(-c2cn(CCCN)[n+](C)c2)cc1)O/N=C(\C(=O)N[C@@H]1C(=O)N(OS(=O)(=O)[O-])C1(C)C)c1csc(N)n1 [Example 117, (S)-3-((Z)-2-((((S)-3-(4-(1-(3-aminopropyl)-2-methyl-1H-pyrazol-2-ium-4-yl)phenoxy)-1-methoxy-1-oxopropan-2-yl)oxy)imino)-2-(2-aminothiazol-4-yl)acetamido)-2,2-dimethyl-4-oxoazetidin-1-yl sulfate] |  |  | 25 | 3.125 |
| CC1(C)[C@H](NC(=O)/C(=N\O[C@@H](COc2ccc(-c3ccc(C(=O)NC(CN)CN)nc3)cc2)C(=O)O)c2csc(N)n2)C(=O)N1OS(=O)(=O)O [Example 81, (S)-2-((((Z)-1-(2-aminothiazol-4-yl)-2-(((S)-2,2-dimethyl-4-oxo-1-(sulfooxy)azetidin-3-yl)amino)-2-oxoethylidene)amino)oxy)-3-(4-(6-((1,3-diaminopropan-2-yl)carbamoyl)pyridin-3-yl)phenoxy)propanoic acid] |  |  | 3.125 | 0.1953 |
| C[n+]1cc(-c2ccc(OC[C@H](O/N=C(\C(=O)N[C@@H]3C(=O)N(OS(=O)(=O)[O-])C3(C)C)c3nc(N)sc3Cl)C(=O)O)cc2)cn1CCCN [Example 11, (S)-3-((Z)-2-(2-Amino-5-chlorothiazol-4-yl)-2-(((S)-2-(4-(1-(3-aminopropyl)-2-methyl-1H-pyrazol-2-ium-4-yl)phenoxy)-1-carboxyethoxy)imino)acetamido)-2,2-dimethyl-4-oxoazetidin-1-yl sulfate] |  |  | 3.125 | 0.7813 |
| C[n+]1cc(-c2ccc(OC[C@H](O/N=C(\C(=O)N[C@@H]3C(=O)N(OS(=O)(=O)[O-])C3(C)C)c3csc(N)n3)C(=O)O)cc2)cn1CCCN [Example 1, (S)-3-((Z)-2-(2-aminothiazol-4-yl)-2-(((S)-2-(4-(1-(3-ammoniopropyl)-2-methyl-1H-pyrazol-2-ium-4-yl)phenoxy)-1-carboxyethoxy)imino)acetamido)-2,2-dimethyl-4-oxoazetidin-1-yl sulfate 2,2,2-trifluoroacetate] |  |  | 3.125 | 0.3906 |
| C[n+]1cc(-c2ccc(OC[C@H](O/N=C(\C(=O)N[C@@H]3C(=O)N(OS(=O)(=O)[O-])C3(C)C)c3nc(N)sc3Cl)C(=O)O)cc2F)ccc1NCCN [Example 69, (S)-3-((Z)-2-(2-amino-5-chlorothiazol-4-yl)-2-(((S)-2-(4-(6-((2-aminoethyl)amino)-1-methylpyridin-1-ium-3-yl)-3-fluorophenoxy)-1-carboxyethoxy)imino)acetamido)-2,2-dimethyl-4-oxoazetidin-1-yl sulfate] |  |  | 3.125 | 0.3906 |
